Patent US11925702B2, “Methods for extracting compound from ginseng, ginseng extract comprising the compound and composition for enhancing skin barrier comprising the same” (AMOREPACIFIC CORPORATION, priority 2022, dated 2024)

What was measured:
Assay type in all cases: cell-based, human
[1] = system: Filaggrin (FLG) gene; test: Filaggrin (FLG) gene expression in NHEK by Taqman real-time PCR; conditions: isolated compound added to NHEK culture media, concentration series (FIG. 5)
Experimental: (§1) (1) Normal human epidermal keratinocytes (NHEK) were cultured in 6-well culture media. The anaerobic-naturally fermented ginseng extract of the preparation example and an unfermented fresh ginseng extract were respectively added to the NHEK media and cultured. After harvesting the cells on the 4th day, separating RNA therefrom, and synthesizing cDNA through RT-PCR (reverse transcriptional polymerase chain reaction), the synthesized cDNA was measured with respect to an expression level of the Filaggrin gene through Taqman real-time PCR, and the results are shown in FIG. 4.
(§2) (2) The compound represented by Chemical Formula 1-1, which was separated from the anaerobic-naturally fermented ginseng extract of the preparation example, was added to an NHEK culture media and treated in the same manner as in (1), and then measured with respect to each gene expression level of Filaggrin, Occludin, and ATP-binding cassette sub-family A member 12 (ATP-binding cassette transporter 12), and the results are shown in FIGS. 5 to 7.

[2] = system: ATP-binding cassette sub-family A member 12 (ABCA12) gene; test: ABCA12 gene expression in NHEK by Taqman real-time PCR; conditions: isolated compound added to NHEK culture media, concentration series (FIG. 7)
Experimental: as §1, §2

[3] = system: Occludin (OCLN) gene; test: Occludin (OCLN) gene expression in NHEK by Taqman real-time PCR; conditions: isolated compound added to NHEK culture media, concentration series (FIG. 6)
Experimental: as §1, §2

Compound: CC(C)=CCC[C@](C)(O[C@@H]1O[C@H](CO[C@@H]2O[C@H](CO)[C@@H](O)[C@H](O)[C@H]2O)[C@@H](O)[C@H](O)[C@H]1O)[C@H]1CC[C@]2(C)[C@@H]1[C@H](O)C[C@@H]1[C@@]3(C)CC[C@H](O[C@@H]4O[C@H](CO)[C@@H](O)[C@H](O)[C@H]4O)C(C)(C)[C@@H]3CC[C@]12C [Chemical Formula 1-1]
- gene expression level of Filaggrin (FLG) [1]: increased, as a concentration thereof was increased
- gene expression level of ATP-binding cassette sub-family A member 12 (ABCA12) [2]: increased, as a concentration thereof was increased
- gene expression level of Occludin (OCLN) [3]: increased, as a concentration thereof was increased
